Data as given in patent US12202805B2, “Process for preparing (5S)-{[2-(4-carboxyphenyl)ethyl] |2-(2-{|3-chloro-4'-(trifluoromethyl)biphenyl-4-yl]methoxy}phenyl)ethyl]aminol-5,6,7,8-tetrahydroquinoline-2-carboxylic acid and its crystalline forms for use as pharmaceutically active compound” (Bayer Aktiengesellschaft, priority 2021, dated 2025).

Key:
[1] = system: Caco-2 cells; assay: Caco-2 permeability test; type: in vitro ADME, human; conditions: 2 μM, 2 h at 37° C.
Description: E-3. Further Characterization E-3.1 Caco-2 Permeability Test
The in vitro permeation of a test compound across a Caco-2 cell monolayer is a well-established assay system to predict the permeability from the gastro-intestinal tract (1). The permeability of the compounds of the present invention in such Caco-2 cells was determined as described below:
Human caco-2 cells were seeded on 24-well insert plates and were allowed to grow for 14-16 days. For permeability studies, the test compounds were dissolved in DMSO and diluted to the final test concentration of 2 μM with transport buffer [Hanks' Buffered Salt Solution, Gibco/Invitrogen, further supplemented with glucose and HEPES]. For determination of the apical to basolateral permeability (PappA-B), the test compound solution was added to the apical side of the cell monolayer and transport buffer to the basolateral side of the monolayer; for determination of the basolateral to apical permeability (PappB-A), the test compound solution was added to the basolateral side of the cell monolayer and transport buffer to the apical side of the monolayer. Samples were taken from the donor compartment at the beginning of the experiment to confirm mass balance. After an incubation of 2 h at 37° C., samples were taken from both compartments. Samples were analyzed by LC-MS/MS, and the apparent permeability coefficients were calculated. Lucifer Yellow permeability was assayed for each cell monolayer to ensure cell monolayer integrity, and the permeability of Atenolol (low permeability marker) and Sulfasalazine (marker for active excretion) was determined for each batch as quality control.

[2] = Protein binding via Transil assay, monkey plasma; type: in vitro ADME
Description: Protein Binding of Comparative Example 11 and Comparative Example 1 was Analyzed Via Transil Assay, Described Below.
The distribution of a test substance between Transil® (phosphatidylcholine lipid bilayers immobilized on silica beads) and plasma is a characteristic feature of any pharmaceutical compound and is dependent on its extent of binding to plasma proteins. By comparing the distribution between Transil® and buffer with the distribution between Transil® and plasma of any species of interest, the unbound fraction in the plasma of the respective animal species can be calculated in vitro. The respective plasma and buffer concentrations were determined via a radioactivity analysis. A detailed description of the method and its validation was published by Schuhmacher et al. (2).

[3] = system: unilateral ventilated minipig model; assay: Unilateral ventilated minipig model as a proxy of VQ-mismatch; type: in vivo; conditions: inhaled application
[4] = system: PAH-minipig model; assay: PAH-minipig model on top of PAH standard-of-care; type: in vivo; conditions: inhaled; SoC e.g. bosentan, sildenafil, Ilomedin, riociguat
[5] = system: sGC; assay: E-2.1 inhalative administration in healthy male subjects for 7 days: cGMP in blood samples; type: in vivo, human
Description: E-2.1 Inhalative Administration of sGC Activators in Healthy Male Subjects for 7 Days—cGMP and Bronchodilatation
(§1) Healthy White male subjects, aged 18 to 45 years and with a body mass index (BMI) above/equal 18.5 and below/equal 29.9 kg/m2 were treated in a clinical pharmacological phase I study on seven days with inhaled once daily doses of 480 μg or 1000 μg or 2000 μg (2 capsules of 1000 μg) (nominal dose) of dry powder formulations comprising example 2 or Placebo. The subjects inhaled the drug powder from capsules (see under C-1, e.g. tables 22 and 23) inserted into a handheld inhalation device by one deep inhalative breath. The dry powder formulation of the drug is dispersed into the airstream and fine particles are transported into the deep parts of the lung where it is intended to cause a vasodilation of the blood vessels in PH patients for a substantial reduction of increased blood pressure in the central pulmonary blood vessels in PAH patients or other subtypes of PH. This effect cannot be shown in subjects with healthy lungs. In addition inhaled drug causes a dilation of the bronchial airways and thus also improves disease states of lung diseases in PH patients with pathological bronchoconstriction. This effect was measured via bodyplethysmography as reduction of Specific Airway Resistance in healthy subjects. After the deep inhalative breath the subjects hold breath for 2 seconds, so that the dry powder drug condenses from the airstream onto the surface of the deeper lung areas where it is deposited close to its site of intended pharmacological action. The drug dissolutes over the day and equilibrates the lung via lining fluid.
Drug activity in healthy men was controlled in the healthy subjects by analysing blood samples for cGMP, the immediate product of sGC pharmacological activation prior after the first and after the last drug inhalation of the 7 days treatment in comparison to measurements on the pretreatment day for all doses.

[6] = E-2.1 plasma concentrations over time after inhalation in healthy male subjects; type: in vivo, human; conditions: all doses administered
Description: as §1, with “After the deep inhalative breath the subjects hold breath for 2 seconds, so that the dry powder drug condenses from the airstream onto the surface of the deeper lung areas where it is deposited close to its site of intended pharmacological action. The drug dissolutes over the day and equilibrates the lung via lining fluid.” left out

SMILES	efflux ratio [1]	free fraction, times lower than comparative example 1 [2] [times]	effect on PAP and oxygenation [3]	effect on elevated PAP on top of PAH standard-of-care [4]	cGMP over time (mean) ([5]; 480 μg, 8 D 00 H 00 M) [nmol/L]	cGMP over time (mean) ([5]; 480 μg, 8 D 12 H 00 M) [nmol/L]	cGMP over time (mean) ([5]; 480 μg, −0 D 09 H 00 M) [nmol/L]	cGMP over time (mean) ([5]; 480 μg, −1 D 02 H 00 M) [nmol/L]	cGMP over time (mean) ([5]; 1000 μg, 5 D 00 H 00 M) [nmol/L]	cGMP over time (mean) ([5]; 1000 μg, −0 D 22 H 00 M) [nmol/L]	cGMP over time (mean) ([5]; 2000 μg, 2 D 00 H 00 M) [nmol/L]	cGMP over time (mean) ([5]; 2000 μg, 3 D 00 H 00 M) [nmol/L]	cGMP over time (mean) ([5]; 2000 μg, 8 D 00 H 00 M) [nmol/L]	cGMP over time (mean) ([5]; 2000 μg, 9 D 12 H 00 M) [nmol/L]	peak mean±SD cGMP value ([5]; first profile day, 1000 μg inhaled) [nmol/L]	persistence of measurable plasma concentration after first inhalation [6] [h]
O=C(O)c1ccc(CCN(CCc2ccccc2OCc2ccc(-c3ccc(C(F)(F)F)cc3)cc2Cl)[C@H]2CCCc3nc(C(=O)O)ccc32)cc1 [comparative example 11, (5S)-5-{[2-(4-carboxyphenyl)ethyl][2-(2-{[3-chloro-4′-(trifluoromethyl)[biphenyl]-4-yl]methoxy}phenyl)ethyl]amino}-5,6,7,8-tetrahydroquinoline-2-carboxylic acid]	does not show an efflux ratio	2	lowered PAP without negative effects on oxygenation	selectively decreased elevated PAP	–	–	–	–	–	–	–	–	–	–	–	–
O=C(O)c1ccc(CCN(CCc2ccccc2OCc2ccc(-c3ccc(C(F)(F)F)cc3)cc2Cl)[C@H]2CCCc3nc(C(=O)O)ccc32)cc1 [example 2, (5S)—{[2-(4-Carboxyphenyl)ethyl][2-(2-{[3-chloro-4′-(trifluoromethyl)biphenyl-4-yl]methoxy}phenyl)-ethyl]amino}-5,6,7,8-tetrahydroquinoline-2-carboxylic acid as Monohydrate II]	–	–	–	–	7.20 ± 3.23	6.20 ± 2.00	5.60 ± 1.08	5.40 ± 1.41	8.50 ± 2.13	5.10 ± 1.46	6.40 ± 2.09	10.00 ± 3.51	16.00 ± 5.77	9.40 ± 3.10	11.69 ± 1.86	48
